Test results: patent publication US20090232913A1, “Composition for the Control of Cholesterol Levels” (priority 2005, published 2009)
Entries after “also recorded” stand apart in the source; their conditions may differ.

Columns and labels:
diabetic rats [1] = assay: Serum cholesterol concentrations after 7 day oral treatment of diabetic rats (lovastatin, MKH, combination); format: in vivo; details: for Effect on total cholesterol: 7 day oral dosage; for Effect on HDL levels: 7 days, MKH at 2 mg/kg
From the text: This is significant as HDLs are protective against heart disease (Despres et al., 2000, Atherosclerosis 153: 263-272). […] This is important as low LDL levels are associated with decreased risk of heart disease.

diabetic Wistar rats = assay: Blood glucose and OGTT in alloxan-induced diabetic rats; format: in vivo; details: 5 days oral treatment
Experimental: In this study white, adult male Wistar rats with average weights between 200 to 300 grams were used. During the study, the animals had free access to food and water and were exposed to changes of dark and light every 12 hours. Access to the food was restricted 12 hours before measurement of glucose blood level with free access to water. The experiment was performed on a normoglycaemic group (Group 1, 32 rats, 8 per treatment) and diabetic rats (Group 2, 32 rats, 8 per treatment). For the diabetic rat experiments diabetes was induced with intraperitoneal injection of alloxan 100 mg/kg. Alloxan is very well verified diabetogenic substance for inducing diabetes in rats and other animal species (rabbit, dog, mice et […]). See, for example, […]. Coil Physicians Edinb, 32: 134-142, 2002; […], Diabetologia, 31: 337-342, 1988; Shaw et al., Lancet, 11: 384-386, 1943; Goldner & Gomori, Endocrinology, 35: 241-268, 1943. 1). Saline solution, 1 ml/kg, per orally, daily for 5 days (control group); 2). Stevioside, 20 mg/kg, orally, daily for 5 days; 3). […] In the diabetic rat the criterion for successful diabetes induction was blood glucose greater than 20 mmol/L on the third day after the last alloxan dose after 3 hours of fasting with free access to water. […] Glucose blood concentrations were measured before the treatment, after the 5th dose, before OGTT, and 30 minutes after OGTT. […]

normoglycaemic rats [2] = assay: C peptide serum concentration in normoglycaemic rats; format: in vivo, Wistar rats; details: non-diabetic rats; treatment for 5 days
Experimental: In this study white, adult male Wistar rats with average weights between 200 to 300 grams were used. During the study, the animals had free access to food and water and were exposed to changes of dark and light every 12 hours. Access to the food was restricted 12 hours before measurement of glucose blood level with free access to water. The experiment was performed on a normoglycaemic group (Group 1, 32 rats, 8 per treatment) and diabetic rats (Group 2, 32 rats, 8 per treatment). For the diabetic rat experiments diabetes was induced with intraperitoneal injection of alloxan 100 mg/kg. Alloxan is very well verified diabetogenic substance for inducing diabetes in rats and other animal species (rabbit, dog, mice et […]). See, for example, […]. Coil Physicians Edinb, 32: 134-142, 2002; […], Diabetologia, 31: 337-342, 1988; Shaw et al., Lancet, 11: 384-386, 1943; Goldner & Gomori, Endocrinology, 35: 241-268, 1943. 1). Saline solution, 1 ml/kg, per orally, daily for 5 days (control group); 2). Stevioside, 20 mg/kg, orally, daily for 5 days; 3). […] 15 minutes after the 5th dose, the animals were exposed to an oral glucose tolerance test (OGTT) using 4 g/kg, orally. Glucose blood concentrations were measured before the treatment, after the 5th dose, before OGTT, and 30 minutes after OGTT. […] The following were measured in serum: 1). […]

normoglycaemic rats [3] = assay: Serum cholesterol and lipid profile in normoglycaemic rats after 5 days treatment; format: in vivo, Wistar rats; details: for Changes in HDL serum cholesterol concentrations / Changes in total cholesterol in serum concentrations / LDL serum cholesterol concentrations relative to control values: normoglycaemic / non-diabetic rats, 5 days treatment
Experimental: In this study white, adult male Wistar rats with average weights between 200 to 300 grams were used. During the study, the animals had free access to food and water and were exposed to changes of dark and light every 12 hours. Access to the food was restricted 12 hours before measurement of glucose blood level with free access to water. The experiment was performed on a normoglycaemic group (Group 1, 32 rats, 8 per treatment) and diabetic rats (Group 2, 32 rats, 8 per treatment). For the diabetic rat experiments diabetes was induced with intraperitoneal injection of alloxan 100 mg/kg. Alloxan is very well verified diabetogenic substance for inducing diabetes in rats and other animal species (rabbit, dog, mice et […]). See, for example, […]. Coil Physicians Edinb, 32: 134-142, 2002; […], Diabetologia, 31: 337-342, 1988; Shaw et al., Lancet, 11: 384-386, 1943; Goldner & Gomori, Endocrinology, 35: 241-268, 1943. 1). Saline solution, 1 ml/kg, per orally, daily for 5 days (control group); 2). Stevioside, 20 mg/kg, orally, daily for 5 days; 3). […] 15 minutes after the 5th dose, the animals were exposed to an oral glucose tolerance test (OGTT) using 4 g/kg, orally. Glucose blood concentrations were measured before the treatment, after the 5th dose, before OGTT, and 30 minutes after OGTT. Then the animals were anaesthetised with urethane injected intraperitoneally, 750 mg/kg, and blood samples for further biochemical analyses were taken by cardiopunction. All biochemical analyses of serum were done by standard procedures, as recommended by the International Federation for Clinical Chemistry (IFCC), on automatic spectrophotometer LISA 300 plus with International Quality Control. The following were measured in serum: 1). Triglycerides concentration (GPO-PAP kit obtained from Boehringer Mannheim GmbH (Mannheim, Germany) in accordance with the manufacturers instructions) 2). […] C-peptide concentration. […] Generally the desired outcome was a decrease in low density lipoprotein (LDL), with no concomitant decrease in high density lipoprotein (HDL). It was also hypothesised that there would be a compatibility with glycaemic effects shown in Example 2. The experimental procedures were essentially those described in Example 2.

diabetic rats [4] = assay: Serum cholesterol and lipid profile in diabetic rats after 5 days treatment; format: in vivo, Wistar rats; details: for Effect on LDL cholesterol levels: treatment for 5 days
Experimental: In this study white, adult male Wistar rats with average weights between 200 to 300 grams were used. During the study, the animals had free access to food and water and were exposed to changes of dark and light every 12 hours. Access to the food was restricted 12 hours before measurement of glucose blood level with free access to water. The experiment was performed on a normoglycaemic group (Group 1, 32 rats, 8 per treatment) and diabetic rats (Group 2, 32 rats, 8 per treatment). For the diabetic rat experiments diabetes was induced with intraperitoneal injection of alloxan 100 mg/kg. Alloxan is very well verified diabetogenic substance for inducing diabetes in rats and other animal species (rabbit, dog, mice et […]). See, for example, […]. Coil Physicians Edinb, 32: 134-142, 2002; […], Diabetologia, 31: 337-342, 1988; Shaw et al., Lancet, 11: 384-386, 1943; Goldner & Gomori, Endocrinology, 35: 241-268, 1943. 1). Saline solution, 1 ml/kg, per orally, daily for 5 days (control group); 2). Stevioside, 20 mg/kg, orally, daily for 5 days; 3). […] In the diabetic rat the criterion for successful diabetes induction was blood glucose greater than 20 mmol/L on the third day after the last alloxan dose after 3 hours of fasting with free access to water. 15 minutes after the 5th dose, the animals were exposed to an oral glucose tolerance test (OGTT) using 4 g/kg, orally. Glucose blood concentrations were measured before the treatment, after the 5th dose, before OGTT, and 30 minutes after OGTT. Then the animals were anaesthetised with urethane injected intraperitoneally, 750 mg/kg, and blood samples for further biochemical analyses were taken by cardiopunction. All biochemical analyses of serum were done by standard procedures, as recommended by the International Federation for Clinical Chemistry (IFCC), on automatic spectrophotometer LISA 300 plus with International Quality Control. The following were measured in serum: 1). Triglycerides concentration (GPO-PAP kit obtained from Boehringer Mannheim GmbH (Mannheim, Germany) in accordance with the manufacturers instructions) 2). […] C-peptide concentration. […] Generally the desired outcome was a decrease in low density lipoprotein (LDL), with no concomitant decrease in high density lipoprotein (HDL). It was also hypothesised that there would be a compatibility with glycaemic effects shown in Example 2. The experimental procedures were essentially those described in Example 2.

diabetic rats [5] = assay: C peptide serum concentration in diabetic rats; format: in vivo, Wistar rats; details: treatment for 5 days
Experimental: In this study white, adult male Wistar rats with average weights between 200 to 300 grams were used. During the study, the animals had free access to food and water and were exposed to changes of dark and light every 12 hours. Access to the food was restricted 12 hours before measurement of glucose blood level with free access to water. The experiment was performed on a normoglycaemic group (Group 1, 32 rats, 8 per treatment) and diabetic rats (Group 2, 32 rats, 8 per treatment). For the diabetic rat experiments diabetes was induced with intraperitoneal injection of alloxan 100 mg/kg. Alloxan is very well verified diabetogenic substance for inducing diabetes in rats and other animal species (rabbit, dog, mice et […]). See, for example, […]. Coil Physicians Edinb, 32: 134-142, 2002; […], Diabetologia, 31: 337-342, 1988; Shaw et al., Lancet, 11: 384-386, 1943; Goldner & Gomori, Endocrinology, 35: 241-268, 1943. 1). Saline solution, 1 ml/kg, per orally, daily for 5 days (control group); 2). Stevioside, 20 mg/kg, orally, daily for 5 days; 3). […] Glucose blood concentrations were measured before the treatment, after the 5th dose, before OGTT, and 30 minutes after OGTT. […] The following were measured in serum: 1). […]

| Structure (SMILES) | Effect on total cholesterol (diabetic rats [1]) | Effect on HDL levels (diabetic rats [1]; Lovastatin 20 mg/kg) | Effect on glucose levels both before and after the OGTT (diabetic Wistar rats) | Effect on C peptide levels (normoglycaemic rats [2]) | Changes in HDL serum cholesterol concentrations (normoglycaemic rats [3]) | Changes in total cholesterol in serum concentrations (normoglycaemic rats [3]) | LDL serum cholesterol concentrations relative to control values (normoglycaemic rats [3]) | LDL: HDL Ratio (ratios of means) (normoglycaemic rats [3]; normoglycaemic rats, n = 8, after 5 days treatment) | Changes in total cholesterol in serum concentrations (diabetic rats [4]; 5 days treatment) | Effect on LDL:HDL ratio (diabetic rats [4]; 5 days treatment) | Effect on HDL levels (diabetic rats [4]; 5 days, MKH at 4 mg/kg) | LDL: HDL Ratio (ratios of means) (diabetic rats [4]; n = 8, after 5 days treatment) | Effect on LDL cholesterol levels (diabetic rats [4]) | Effect on LDL levels (diabetic rats [1]; 7 days oral treatment, MKH 2 mg/kg, Lovastatin 20 mg/kg) | Effect on LDL:HDL ratio (diabetic rats [1]; by Day 7) | Effect on C-peptide (diabetic rats [5]) |
| --- | --- | --- | --- | --- | --- | --- | --- | --- | --- | --- | --- | --- | --- | --- | --- | --- |
| CC[C@H](C)C(=O)O[C@H]1C[C@@H](C)C=C2C=C[C@H](C)[C@H](CC[C@@H]3C[C@@H](O)CC(=O)O3)[C@H]21 [Lovastatin, reference compound] | reduced total cholesterol by a similar amount | reduced HDLs significantly |  |  |  |  |  |  |  |  |  |  |  |  |  |  |
| C[C@H](CCC(=O)O)[C@H]1CC[C@H]2[C@@H]3[C@H](O)C[C@@H]4C[C@H](O)CC[C@]4(C)[C@H]3CC(=O)[C@]12C [MKH, 3α,7α-dihydroxy-12-oxo-5β-cholanate] | reduced total cholesterol by a similar amount | this effect was not observed; also recorded: did not do so | significant decrease in glucose levels | Neither stevioside or 3α,7α-dihydroxy-12-oxo-5β-cholanate alone had statistically significant effects | no significant changes | no significant changes | significantly decreased (one third of control values) | 0.01 | no significant changes | slight increase in LDL:HDL ratio | A decrease was observed | 1.12 | decreases in LDL levels and while these were not statistically significant | very highly significant decrease in LDL levels; also recorded: significantly greater than that achieved by Lovastatin | significant decrease in the LDL:HDL ratio |  |
| C=C1C[C@@]23CC[C@H]4[C@@](C)(CCC[C@@]4(C)C(=O)O[C@@H]4O[C@H](CO)[C@@H](O)[C@H](O)[C@H]4O)[C@@H]2CC[C@]1(O[C@@H]1O[C@H](CO)[C@@H](O)[C@H](O)[C@H]1O[C@@H]1O[C@H](CO)[C@@H](O)[C@H](O)[C@H]1O)C3 [Stevioside, stevioside] |  |  |  | Neither stevioside or 3α,7α-dihydroxy-12-oxo-5β-cholanate alone had statistically significant effects | no significant changes | no significant changes | significantly decreased (one third of control values) |  | no significant changes |  |  |  | highly significant decrease in LDL cholesterol levels |  |  | significant increases in C-peptide |
